One data set relates to Balb/c mice. Briefly: In vivo expression of Lucia mRNAs containing cap analogs. Conditions: Lucia mRNA capped with the compound, compared with Cap1 (FIG. 1C). How it is done: Candidate RNAs were formulated using proprietary lipid-based delivery vehicles (e.g., as described in WO 2020/069442 and WO 2023/014931) and administered to Balb/c mice at a dose of 15 μg per mouse. In life serum draws were conducted via submandibular vein at selected time points starting 2 hours post-dose. Serum was diluted 5 μL into […] of QUANTI-Luc reagent (InvivoGen, San Diego, CA, USA) and measured immediately using a plate reader (Molecular Devices, San Jose, CA, USA).

The target of data set [1] is T1, HiScribe T7 RNA synthesis kit (IVT reaction, DNA template encoding Lucia) (Escherichia phage T7, UniProt P00573).
T1 construct: purchased New England Biolabs
Briefly: In vitro transcription (IVT) of mRNAs containing cap analogs: yield / incorporation. The class given is biochemical. Here is the method: mRNA was transcribed from DNA template encoding Lucia using HiScribe T7 RNA synthesis kit (New England Biolabs, Ipswich, MA, USA). N^1-Methylpseudo-UTP (TniLink, San Diego, CA, USA) was used in replaced of UTP for the reaction. For 5′ capping of the mRNA, the cap analog compounds (e.g., Compounds 1-4) described herein, or CleanCap (TriLink, San Diego, CA, USA), were added to the IVT reaction, as indicated. The reactions were performed for 4 hours at 37° C.
Purification of the transcript was performed by TURBO DNase digestion (ThermoFisher Scientific, Waltham, MA, USA) for 30 min at 37° C. followed by RNAClean XP beads (Beckman Coulter) clean up. The RNA bound beads were washed 3 times with freshly prepared 70% ethanol, air dried for 15 minutes followed by elution in 200 μL of nuclease free water. The purified mRNA was quantified using nanodrop (ThermoFisher Scientific, Waltham, MA, USA) and analyzed using Tapestation (Agilent, Santa Clara, CA, USA).

In data set [2] the test system is human Dendritic Cells (differentiated from PBMCs). Briefly: Cap immunogenicity by multiplexed cytokine screening (Luminex) in dendritic cells. Conditions: human DCs, 24 hours, compared with Cap1 (FIGS. 3A-3F). The class given is cell-based. Here is the method:
Fresh human Dendritic Cells (differentiated from PBMCs by GM-CSF+IL-4 stimulation) were plated at 5e4 cells per well in 96 well flat TC treated dish. mRNA was prepared in Lipofectamine MessengerMAX transfection reagent according to manufacturer's instructions at 2ng/1 k cells. Briefly, mRNA was diluted to 0.02 μg/μl in Opti-MEM reduced serum medium and mixed 1:1 with MessengerMAX to a concentration of 0.01 μg/μl. Two 1:10 dilutions were performed and 10 or 2.5 μl per well of each dilution was added directly to DCs in resulting doses of 2, 0.5, 0.2, 0.05 and 0.02 ng per 1000 DCs. Immunostimulatory RIG-1 agonist Hairpin RNA (3p-hpRNA, InvivoGen) and double stranded RNA (5′ ppp-dsRNA, InvivoGen) were used as controls and formulated as described above.
Stimulated DCs were incubated for 24 hours at 37° C. with 5% CO2. Supernatant was collected and immediately frozen at −80° C. It was subsequently thawed and prepared for Luminex xMAP analysis using a Human Inflammation 20-Plex ProcartaPlex Panel kit (ThermoFisher) according to the manufacturer's instructions. Data was acquired on a MAGPIX system (Luminex xMAP instrument) and pg/mL values for each analyte were derived from a standard curve generated with kit components. Values outside the range of the standard curve were reported as mean fluorescence intensity (MFI).

T1 sequence (P00573 whole entry): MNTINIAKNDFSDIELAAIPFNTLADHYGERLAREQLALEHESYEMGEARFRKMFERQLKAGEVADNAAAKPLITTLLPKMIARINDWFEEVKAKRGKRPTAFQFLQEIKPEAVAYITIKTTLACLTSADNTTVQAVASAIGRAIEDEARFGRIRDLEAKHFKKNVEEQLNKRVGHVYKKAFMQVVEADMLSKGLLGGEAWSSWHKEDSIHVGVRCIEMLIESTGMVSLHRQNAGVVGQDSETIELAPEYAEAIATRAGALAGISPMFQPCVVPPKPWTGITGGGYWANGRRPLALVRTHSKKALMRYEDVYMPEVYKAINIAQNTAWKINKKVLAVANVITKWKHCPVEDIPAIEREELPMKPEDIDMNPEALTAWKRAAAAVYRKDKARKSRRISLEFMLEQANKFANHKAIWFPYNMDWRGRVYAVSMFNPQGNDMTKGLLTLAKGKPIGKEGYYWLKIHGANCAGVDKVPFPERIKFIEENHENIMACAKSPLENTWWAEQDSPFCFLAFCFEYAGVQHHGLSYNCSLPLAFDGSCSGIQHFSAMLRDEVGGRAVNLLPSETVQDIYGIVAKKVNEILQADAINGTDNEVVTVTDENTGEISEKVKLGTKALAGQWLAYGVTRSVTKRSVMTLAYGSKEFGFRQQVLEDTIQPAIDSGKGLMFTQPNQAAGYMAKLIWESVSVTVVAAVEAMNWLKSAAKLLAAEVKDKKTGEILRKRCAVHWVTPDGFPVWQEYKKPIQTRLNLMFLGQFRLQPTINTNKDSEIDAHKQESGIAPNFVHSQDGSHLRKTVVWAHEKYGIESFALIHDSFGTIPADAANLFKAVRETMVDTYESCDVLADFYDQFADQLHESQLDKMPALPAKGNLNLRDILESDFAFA

Consider `CC[n+]1cn([C@@H]2O[C@H](COP(=O)(O)OP(=O)([O-])OP(=O)(O)OC[C@H]3O[C@@H](n4cnc5c(N)ncnc54)[C@H](OC)[C@@H]3OP(=O)(O)OC[C@H]3O[C@@H](n4cnc5c(=O)[nH]c(N)nc54)[C@H](O)[C@@H]3O)[C@@H](O)[C@H]2O)c2nc(N)[nH]c(=O)c21` [Compound 1], for which the in vivo expression entry in the data set on Balb/c mice is on record as “equivalently”. Further, in data set [1] (mRNA capped with the compound, compared with Cap1 (FIG. 1A)), the IVT yield entry is recorded as “equivalently”. Besides, the “incorporation into IVT” value in data set [1] (trinucleotide cap modified at the 7G position) is “successfully incorporated”.

For the compound `CC[n+]1cn([C@@H]2O[C@H](COP(=O)(O)OP(=O)(O)OP(=O)(O)OC[C@H]3O[C@@H](n4cnc5c(N)ncnc54)[C@H](OC)[C@@H]3O[P@@]([O-])(=S)OC[C@H]3O[C@@H](N4C=NC5C(=O)NC(N)=NC54)[C@H](O)[C@@H]3O)[C@@H](O)[C@H]2O)c2nc(N)[nH]c(=O)c21` (stereo partly shown) [Compound 3], the “immunogenicity across key cytokine markers (IFNγ, IFNα, IP-10, IL-1α, TNFα)” value in data set [2] is reported as “lower”.

The values are drawn from patent US20250026779A1 (priority 2023, published 2025).
